Data reported in ChEMBL document CHEMBL1201862, “PubChem BioAssay data set” (2004).
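Method: 48-hour compound exposure of cells in 96-well plates, five concentrations, linear interpolation of endpoints. GI50 marks 50% less growth.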 Activity calls are given as the source filed them. No stated cut-off is given here; in the data, active = GI50 up to about 1.1 µM and inactive = higher.

Legend:
Experiment in all cases: NCI tumour cell line growth inhibition, 48 h
OVCAR-4 = test system: OVCAR-4
SK-MEL-2 = test system: SK-MEL-2
SW-620 = test system: SW-620
HT-29 = test system: HT-29
SK-MEL-28 = test system: SK-MEL-28
UACC-62 = test system: UACC-62
NCI-H23 = test system: NCI-H23
OVCAR-5 = test system: OVCAR-5
SF-295 = test system: SF-295
MCF7 = test system: MCF7
M14 = test system: M14
786-0 = test system: 786-0
A549 = test system: A549
OVCAR-3 = test system: OVCAR-3
OVCAR-8 = test system: OVCAR-8
HOP-62 = test system: HOP-62
LOX IMVI = test system: LOX IMVI
SR = test system: SR

Structure (SMILES) | GI50 (OVCAR-4) | GI50 (SK-MEL-2) | GI50 (SW-620) | GI50 (HT-29) | GI50 (SK-MEL-28) | GI50 (UACC-62) | GI50 (NCI-H23) | GI50 (OVCAR-5) | GI50 (SF-295) | GI50 (MCF7) | GI50 (M14) | GI50 (786-0) | GI50 (A549) | GI50 (OVCAR-3) | GI50 (OVCAR-8) | GI50 (HOP-62) | GI50 (LOX IMVI) | GI50 (SR)
Nn1c(CCCCCCCCc2nnc(COc3ccc(Cl)cc3)n2N)nnc1COc1ccc(Cl)cc1 | > 100 µM (inactive) | > 100 µM (inactive) | > 100 µM (inactive) | > 100 µM (inactive) | > 100 µM (inactive) | > 100 µM (inactive) | > 100 µM (inactive) | > 100 µM (inactive) | > 100 µM (inactive) | > 100 µM (inactive) | > 100 µM (inactive) | > 100 µM (inactive) | > 100 µM (inactive) |  |  |  |  | 
c1ccc2c(c1)Cn1c-2nc2ccccc21 | > 100 µM (inactive) | > 100 µM (inactive) | > 100 µM (inactive) | > 100 µM (inactive) | > 100 µM (inactive) | > 100 µM (inactive) | > 100 µM (inactive) | > 100 µM (inactive) | > 100 µM (inactive) | > 100 µM (inactive) | > 100 µM (inactive) | > 100 µM (inactive) | 67.6 µM (inactive) | > 100 µM (inactive) | > 100 µM (inactive) | > 100 µM (inactive) | > 100 µM (inactive) | 
CCOC(=O)CSc1nc(-c2ccc(Cl)cc2)c(C#N)c(=O)[nH]1 | > 100 µM (inactive) | > 100 µM (inactive) | > 100 µM (inactive) | > 100 µM (inactive) | > 100 µM (inactive) | 92 µM (inactive) | > 100 µM (inactive) | > 100 µM (inactive) | > 100 µM (inactive) | 99.5 µM (inactive) | > 100 µM (inactive) | > 100 µM (inactive) | > 100 µM (inactive) | > 100 µM (inactive) | > 100 µM (inactive) | > 100 µM (inactive) |  | 
S=c1oc(CCCCCCCCc2nn(CNc3ccccc3)c(=S)o2)nn1CNc1ccccc1 | > 100 µM (inactive) | > 100 µM (inactive) | > 100 µM (inactive) | > 100 µM (inactive) | > 100 µM (inactive) | > 100 µM (inactive) | > 100 µM (inactive) | > 100 µM (inactive) | > 100 µM (inactive) | > 100 µM (inactive) | > 100 µM (inactive) | > 100 µM (inactive) | > 100 µM (inactive) |  |  | > 100 µM (inactive) |  | 
COC(=O)CCc1ccc2c(c1)CC1(C2)Cc2ccc3c(c2C1)CCC3 (configuration not stated) | 49.1 µM (inactive) |  | > 100 µM (inactive) | 70.3 µM (inactive) | > 100 µM (inactive) | 23.6 µM (inactive) | 50.6 µM (inactive) | > 10 µM (inactive) | > 100 µM (inactive) | 59.6 µM (inactive) | 59.2 µM (inactive) | 69.8 µM (inactive) | 53.5 µM (inactive) | > 100 µM (inactive) | 46.2 µM (inactive) | > 100 µM (inactive) | > 100 µM (inactive) | > 100 µM (inactive)
Cc1cc2nc3c(C#N)c(-c4ccccc4)cc(Nc4cccc(C(F)(F)F)c4)n3c2cc1C | 5.28 µM (inactive) | 2.61 µM (inactive) | 3.74 µM (inactive) |  | 9.02 µM (inactive) |  | 5.25 µM (inactive) | 12.9 µM (inactive) | 7.19 µM (inactive) | 3.91 µM (inactive) | 4.78 µM (inactive) | 4.4 µM (inactive) | 3.18 µM (inactive) | 2.21 µM (inactive) | 4.14 µM (inactive) | 9.98 µM (inactive) | 9.12 µM (inactive) | 
Cc1ccc(Nc2cn(COCc3ccccc3)c(=O)[nH]c2=O)cc1 | > 100 µM (inactive) |  | > 100 µM (inactive) | > 100 µM (inactive) | > 100 µM (inactive) | 43.9 µM (inactive) | 25.5 µM (inactive) | > 100 µM (inactive) | 39.7 µM (inactive) | > 100 µM (inactive) | > 100 µM (inactive) | 43.5 µM (inactive) | > 100 µM (inactive) | > 100 µM (inactive) |  | 29.4 µM (inactive) | > 100 µM (inactive) | > 100 µM (inactive)
Cc1ccc(Cl)c2c(=O)c3ccc(N)cc3sc12 |  | 20.1 µM (inactive) |  | 17.5 µM (inactive) |  | 14.9 µM (inactive) | 23.9 µM (inactive) | 28 µM (inactive) | 13.5 µM (inactive) | 15.7 µM (inactive) | 28.4 µM (inactive) | 24.9 µM (inactive) | 24.9 µM (inactive) | 20 µM (inactive) | 13.2 µM (inactive) | 19.7 µM (inactive) |  | 
[B].c1ccc([Si](OCCN2CC2)(c2ccccc2)c2ccccc2)cc1 | 10.8 µM (inactive) | 0.557 µM (active) | 14.7 µM (inactive) | 14 µM (inactive) |  | 14.2 µM (inactive) | 15.6 µM (inactive) | 14.6 µM (inactive) | 14.3 µM (inactive) | 14.5 µM (inactive) | 15.9 µM (inactive) | 14.2 µM (inactive) | 11.9 µM (inactive) | 16.4 µM (inactive) | 16.6 µM (inactive) | 14.9 µM (inactive) | 14.5 µM (inactive) | 
